Measurements taken from the NIST ThermoML archive (doi:10.1021/acs.jced.8b00157).
Values joined by “and” are separate entries in the source; they are usually repeats but may differ in a detail not shown here. Identical values can stand only once.

Test: an = ratio of the nth substance listed
Details: 100 kPa, Liquid, Buoyancy - hydrostatic balance

[F][Al]([F])[F] [aluminum fluoride] + [F-].[K+]
Details | mass density
1123.5 K, a2 = 1.5 | 1749 kg/m3
1124 K, a2 = 1.5 | 1748 kg/m3
1124.4 K, a2 = 1.5 | 1748 kg/m3
1124.9 K, a2 = 1.5 | 1747 kg/m3
1125.1 K, a2 = 1.5 | 1747 kg/m3
1125.7 K, a2 = 1.5 | 1747 kg/m3
1126.2 K, a2 = 1.5 | 1747 kg/m3
1126.6 K, a2 = 1.5 | 1746 kg/m3
1127 K, a2 = 1.5 | 1746 kg/m3
1127.4 K, a2 = 1.5 | 1746 kg/m3
1127.8 K, a2 = 1.5 | 1745 kg/m3
1128.2 K, a2 = 1.5 | 1745 kg/m3
1128.6 K, a2 = 1.5 | 1745 kg/m3
1128.9 K, a2 = 1.5 | 1745 kg/m3
1129.6 K, a2 = 1.5 | 1744 kg/m3
1129.8 K, a2 = 1.5 | 1744 kg/m3
1130.3 K, a2 = 1.5 | 1743 kg/m3
1130.8 K, a2 = 1.5 | 1743 kg/m3
1131 K, a2 = 1.5 | 1743 kg/m3
1131.5 K, a2 = 1.5 | 1742 kg/m3
1132 K, a2 = 1.5 | 1742 kg/m3
1132.3 K, a2 = 1.5 | 1742 kg/m3
1132.7 K, a2 = 1.5 | 1742 kg/m3
1133.2 K, a2 = 1.5 | 1741 kg/m3
1133.6 K, a2 = 1.5 | 1741 kg/m3
1134 K, a2 = 1.5 | 1741 kg/m3
1134.3 K, a2 = 1.5 | 1740 kg/m3
1134.8 K, a2 = 1.5 | 1740 kg/m3
1135.2 K, a2 = 1.5 | 1740 kg/m3
1135.6 K, a2 = 1.5 | 1739 kg/m3
1136.1 K, a2 = 1.5 | 1739 kg/m3
1163.2 K, a2 = 1.7 | 1864 kg/m3
1163.3 K, a2 = 1.7 | 1864 kg/m3
1163.4 K, a2 = 1.7 | 1864 kg/m3
1163.6 K, a2 = 1.7 | 1863 kg/m3
1164.4 K, a2 = 1.7 | 1863 kg/m3
1165 K, a2 = 1.7 | 1864 kg/m3
1165.1 K, a2 = 1.7 | 1863 kg/m3
1165.3 K, a2 = 1.7 | 1862 kg/m3 and 1863 kg/m3
1165.4 K, a2 = 1.7 | 1863 kg/m3
1166.1 K, a2 = 1.7 | 1861 kg/m3
1166.2 K, a2 = 1.7 | 1861 kg/m3
1166.4 K, a2 = 1.7 | 1862 kg/m3
1166.6 K, a2 = 1.7 | 1862 kg/m3
1166.8 K, a2 = 1.7 | 1861 kg/m3
1167 K, a2 = 1.7 | 1860 kg/m3
1167.3 K, a2 = 1.7 | 1860 kg/m3 and 1861 kg/m3
1167.5 K, a2 = 1.7 | 1860 kg/m3
1167.6 K, a2 = 1.7 | 1861 kg/m3
1168.2 K, a2 = 1.7 | 1860 kg/m3
1168.6 K, a2 = 1.7 | 1859 kg/m3
1169.1 K, a2 = 1.7 | 1860 kg/m3 and 1859 kg/m3
1169.2 K, a2 = 1.7 | 1859 kg/m3
1169.4 K, a2 = 1.7 | 1858 kg/m3
1169.6 K, a2 = 1.7 | 1858 kg/m3
1169.7 K, a2 = 1.7 | 1858 kg/m3
1169.8 K, a2 = 1.7 | 1858 kg/m3
1170.3 K, a2 = 1.7 | 1857 kg/m3
1170.5 K, a2 = 1.7 | 1857 kg/m3
1170.6 K, a2 = 1.7 | 1857 kg/m3
1171.1 K, a2 = 1.7 | 1857 kg/m3
1172 K, a2 = 1.7 | 1856 kg/m3 and 1857 kg/m3
1172.2 K, a2 = 1.7 | 1855 kg/m3
1172.7 K, a2 = 1.7 | 1856 kg/m3
1173.3 K, a2 = 1.7 | 1856 kg/m3
1173.8 K, a2 = 1.7 | 1854 kg/m3
1174 K, a2 = 1.7 | 1855 kg/m3
1174.1 K, a2 = 1.7 | 1855 kg/m3 and 1854 kg/m3
1174.5 K, a2 = 1.7 | 1853 kg/m3
1174.6 K, a2 = 1.7 | 1854 kg/m3
1174.9 K, a2 = 1.7 | 1855 kg/m3
1175.1 K, a2 = 1.7 | 1852 kg/m3 and 1854 kg/m3
1175.4 K, a2 = 1.7 | 1854 kg/m3
1175.6 K, a2 = 1.7 | 1854 kg/m3
1175.8 K, a2 = 1.7 | 1853 kg/m3
1175.9 K, a2 = 1.7 | 1852 kg/m3
1176 K, a2 = 1.7 | 1852 kg/m3 and 1853 kg/m3
1176.8 K, a2 = 1.7 | 1851 kg/m3
1177.3 K, a2 = 1.7 | 1851 kg/m3
1177.5 K, a2 = 1.7 | 1852 kg/m3
1177.8 K, a2 = 1.7 | 1851 kg/m3
1177.9 K, a2 = 1.7 | 1852 kg/m3
1178.2 K, a2 = 1.7 | 1851 kg/m3
1178.3 K, a2 = 1.7 | 1851 kg/m3
1178.4 K, a2 = 1.7 | 1850 kg/m3
1179.5 K, a2 = 1.7 | 1849 kg/m3
1179.7 K, a2 = 1.7 | 1849 kg/m3
1179.8 K, a2 = 1.7 | 1850 kg/m3
1179.9 K, a2 = 1.7 | 1849 kg/m3
1180 K, a2 = 1.7 | 1850 kg/m3
1180.2 K, a2 = 1.7 | 1848 kg/m3
1180.4 K, a2 = 1.7 | 1849 kg/m3
1180.7 K, a2 = 1.7 | 1849 kg/m3
1181 K, a2 = 1.7 | 1848 kg/m3
1181.4 K, a2 = 1.7 | 1849 kg/m3
1181.5 K, a2 = 1.7 | 1848 kg/m3
1181.8 K, a2 = 1.7 | 1847 kg/m3
1182.4 K, a2 = 1.7 | 1846 kg/m3 and 1847 kg/m3 and 1848 kg/m3
1182.6 K, a2 = 1.7 | 1847 kg/m3
1182.7 K, a2 = 1.7 | 1847 kg/m3
1183.2 K, a2 = 1.7 | 1846 kg/m3
1183.6 K, a2 = 1.7 | 1846 kg/m3
1183.8 K, a2 = 1.7 | 1846 kg/m3
1184.2 K, a2 = 1.7 | 1846 kg/m3
1184.3 K, a2 = 1.7 | 1845 kg/m3
1184.6 K, a2 = 1.7 | 1846 kg/m3
1184.8 K, a2 = 1.7 | 1845 kg/m3
1184.9 K, a2 = 1.7 | 1845 kg/m3
1185.1 K, a2 = 1.7 | 1845 kg/m3
1185.4 K, a2 = 1.7 | 1844 kg/m3
1185.7 K, a2 = 1.7 | 1844 kg/m3
1186.3 K, a2 = 1.7 | 1843 kg/m3
1186.4 K, a2 = 1.7 | 1844 kg/m3
1186.5 K, a2 = 1.7 | 1844 kg/m3
1186.8 K, a2 = 1.7 | 1843 kg/m3
1186.9 K, a2 = 1.7 | 1843 kg/m3
1187.8 K, a2 = 1.7 | 1843 kg/m3 and 1842 kg/m3 and 1842 kg/m3
1188.1 K, a2 = 1.7 | 1842 kg/m3
